Source: PubChem BioAssay (NCI)
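Interpolation was linear, between the two tested concentrations surrounding the appropriate level; five concentrations were tested over 48 hours in 96-well plates. GI50 marks 50% less growth. The concentration for full growth arrest is given as TGI.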

Each molecule was assayed on MDA-MB-468 breast (assay: inhibition of tumour cell growth, NCI panel, 48 h).
Work on `C=CC(COC(c1ccccc1)(c1ccccc1)c1ccccc1)N(CC)CC` (stereo not given) yielded a GI50 of 2430 nM and a TGI of 6750 nM. Work on `O=C(NC(=S)Nc1cc(Cl)ccc1O)c1cccc(Br)c1` yielded a GI50 of 5250 nM and a TGI greater than 100000 nM. `C=C1C(=O)O[C@H]2[C@H]1CC/C(COC(=O)NCc1ccc(Cn3c(=O)sn(-c4ccccc4)c3=O)cc1)=C\CC[C@@]1(C)O[C@@H]21` showed a GI50 of 1170 nM and a TGI of 2850 nM. For `Nc1ncc(-c2cccc(S(N)(=O)=O)c2)c2scc(-c3ccc(F)c(Cl)c3)c12`, the GI50 was 5130 nM and the TGI was 15700 nM. Work on `CC(=O)c1nc2ccccc2n1CC(=O)c1cccc(Cl)c1` yielded a GI50 of 328 nM. `Cc1cc(Nc2cc(N)ncn2)c(=O)n2c1C(=O)NC21CCCCC1` gave a GI50 of 94900 nM and a TGI greater than 100000 nM. `Cc1c(Cl)cccc1NC(=O)c1sc2nc3c(cc2c1N)CCCCC3` gave a GI50 of 165 nM and a TGI of 29600 nM. Work on `Cc1cccc(Cc2cnc(NC(=O)CCc3ccc(C)o3)s2)c1` yielded a GI50 of 112 nM and a TGI of 6560 nM. `CCCCCn1c(C)cc(/C=C\c2ccc3cc(C)ccc3[n+]2C)c1C` showed a GI50 of 13.3 nM and a TGI of 52.3 nM. `CCCCCCCCCCCCCCCC1=NC(C)(C)CN1C(C)C` gave a GI50 of 1320 nM and a TGI of 2660 nM. For `CC1(C)C(=O)/C(=C\c2cccnc2)C[C@]2(C)[C@H]3CC[C@@H]4[C@@H](C(=O)/C=C/c5ccncc5)CC[C@@]4(C)[C@]3(C)CC[C@@H]12`, the GI50 was 1720 nM and the TGI was 3670 nM. `Cn1cc(C2=C(N3CCOCC3)C(=O)NC2=O)c2ccccc21` was tested, and the GI50 was greater than 25000 nM and the TGI was greater than 25000 nM. Molecule `CN(C)CCCn1c(-c2nonc2N)nc2cnccc21` has a TGI greater than 25000 nM. In the case of `O=c1oc2c(C(F)(F)F)cccc2cc1-c1csc(Nc2ccc(OCCF)cc2)n1`, the GI50 is reported as 40.1 nM and the TGI is reported as 12400 nM. For `COc1ccc2ccc3oc([N+](=O)[O-])cc3c2c1`, the GI50 was 168 nM and the TGI was 381 nM. `CC(=O)c1cc(O)c2ccccc2c1O` was tested, and the GI50 was 17500 nM and the TGI was 33400 nM. In the case of `CC(=C/c1ccccc1)/C=C1/NC(=S)N(/C=C2\C(=O)Oc3ccccc3C2=O)C1=O`, the GI50 is reported as 26900 nM and the TGI is reported as greater than 100000 nM. `C[C@@H]1COCCN1c1cc(C2(O)C[C@H]3CC[C@@H](C2)O3)c2cnn(-c3ccn[nH]3)c2n1` (stereo not given in full) gave a GI50 of 113 nM and a TGI of 545 nM. `COc1c(B(O)O)cc(F)cc1-c1nc2ccc3[nH]ncc3c2c2c1CCCC2` gave a GI50 of 1510 nM and a TGI of 4210 nM. Work on `C[C@@H](Nc1nc(Nc2ccc(F)c(Cl)c2)nc2ccccc12)C1CC1` yielded a GI50 of 1350 nM and a TGI of 3740 nM. `O=C(CCCCC(=O)N/N=C\c1ccccc1O)N/N=C\c1ccccc1O` gave a GI50 of 2630 nM and a TGI greater than 100000 nM. For `CCN(c1cc(C#CCN2CCOCC2)cc(C(=O)NCc2c(C)cc(C)[nH]c2=O)c1C)C1CCC(N(C)CCOC)CC1` (stereo not given), the GI50 was greater than 100000 nM and the TGI was greater than 100000 nM. `CC(C)(C)c1ccc(NS(=O)(=O)c2ccc3nc(NC(=O)c4cnccn4)[nH]c3c2)cc1` was tested, and the GI50 was 712 nM and the TGI was 4270 nM. With `CNCCN=c1ccc2c3c1c(O)c1c(O)ccc(=O)c1c3[nH]n2CCNCCO` the GI50 was 63.4 nM and the TGI was 435 nM. `CCN(Cc1c(Cl)cccc1Cl)c1ccc(CO)c(Cl)c1` was tested, and the TGI was 33 nM. Work on `COc1cc(-c2csc(NC(=O)Nc3cc(Cl)cc(Cl)c3)n2)cc(OC)c1OC` yielded a GI50 of 1670 nM and a TGI of 3820 nM. Work on `CCN(CC)c1ccc(/C=C/C=C2\NC(=O)NC2=O)cc1` yielded a GI50 of 1820 nM and a TGI of 7260 nM. `COc1ccc(-c2nn(-c3ccc(NC(=O)Nc4ccc(Cl)c(C(F)(F)F)c4)cc3)cc2-c2ccncc2)cc1Cl` gave a GI50 of 1180 nM and a TGI of 3110 nM. For `CC[C@H](C)C(=O)O[C@H]1C[C@H](O)C=C2C=C[C@H](C)[C@H](CC[C@@H](O)C[C@@H](O)CC(=O)O)[C@H]21`, the GI50 was greater than 100000 nM and the TGI was greater than 100000 nM. `Cc1cc(C(=O)c2ccccc2)c(C)c2c1[nH]c1ccc(Cl)cc12` was tested, and the GI50 was 33.9 nM and the TGI was 1120 nM. Molecule `O=C1OCC2=C1C(c1ccccc1)c1cc3c(cc1N2CCO)OCCO3` (stereo not given) has a GI50 of 138 nM and a TGI of 959 nM. Work on `COc1ccc(Cn2cc3c(c2-c2cc(OC)c(OC)c(OC)c2)CCc2cnoc2-3)cc1` yielded a GI50 of 171 nM and a TGI of 622 nM. Work on `Oc1ccc(N=Nc2ccccn2)c(O)c1` yielded a GI50 of 681 nM and a TGI of 4650 nM. `O=c1ccc2nc(-c3ccccn3)nn(-c3ccccc3)c-2c1` gave a GI50 of 1440 nM and a TGI of 3450 nM. `Nc1c(C(=O)Nc2cccc(Cl)c2Cl)sc2nc3c(cc12)C(=O)CCC3` showed a GI50 of 786 nM and a TGI greater than 100000 nM. For `N#CC1C=Cc2c(ccc3ccccc23)N1C(=O)c1ccccc1` (stereo not given), the GI50 was 43.2 nM and the TGI was 218 nM. `CC#Cc1nc(Nc2cc(C)[nH]n2)c2ccccc2n1` showed a GI50 of 2470 nM and a TGI of 6400 nM. `Cc1ccc(-c2cc(O)c(-c3ccc(C)cc3C)cc2O)c(C)c1` was tested, and the GI50 was 1750 nM and the TGI was 13500 nM. With `COc1ccc2nc3cc(Cl)ccc3c(NCCNc3c4ccc(Cl)cc4nc4ccc(OC)cc34)c2c1` the GI50 was 1800 nM and the TGI was 3780 nM.
